In patent US11447505B1, “Pyrrolo[2,3-b]pyridine compounds and their use in the treatment of cancer” (priority 2017, dated 2022):

Columns and labels:
MRCKα = MRCKα (Homo sapiens (Human), UniProt Q5VT25); assay: MRCKα kinase assay (IMAP fluorescence polarization); assay type: biochemical; conditions: 1 μM ATP; read-out: MRCK-a Average Ki
From the text: (§1) MRCKα, MRCKβ, ROCK1 and ROCK2 Kinase Assays

ROCK2 = ROCK2 (Homo sapiens (Human), UniProt O75116); assay: ROCK2 kinase assay (IMAP fluorescence polarization); assay type: biochemical; conditions: 1 μM ATP; read-out: ROCK2 Average Ki
ROCK2, sequence (O75116 whole entry): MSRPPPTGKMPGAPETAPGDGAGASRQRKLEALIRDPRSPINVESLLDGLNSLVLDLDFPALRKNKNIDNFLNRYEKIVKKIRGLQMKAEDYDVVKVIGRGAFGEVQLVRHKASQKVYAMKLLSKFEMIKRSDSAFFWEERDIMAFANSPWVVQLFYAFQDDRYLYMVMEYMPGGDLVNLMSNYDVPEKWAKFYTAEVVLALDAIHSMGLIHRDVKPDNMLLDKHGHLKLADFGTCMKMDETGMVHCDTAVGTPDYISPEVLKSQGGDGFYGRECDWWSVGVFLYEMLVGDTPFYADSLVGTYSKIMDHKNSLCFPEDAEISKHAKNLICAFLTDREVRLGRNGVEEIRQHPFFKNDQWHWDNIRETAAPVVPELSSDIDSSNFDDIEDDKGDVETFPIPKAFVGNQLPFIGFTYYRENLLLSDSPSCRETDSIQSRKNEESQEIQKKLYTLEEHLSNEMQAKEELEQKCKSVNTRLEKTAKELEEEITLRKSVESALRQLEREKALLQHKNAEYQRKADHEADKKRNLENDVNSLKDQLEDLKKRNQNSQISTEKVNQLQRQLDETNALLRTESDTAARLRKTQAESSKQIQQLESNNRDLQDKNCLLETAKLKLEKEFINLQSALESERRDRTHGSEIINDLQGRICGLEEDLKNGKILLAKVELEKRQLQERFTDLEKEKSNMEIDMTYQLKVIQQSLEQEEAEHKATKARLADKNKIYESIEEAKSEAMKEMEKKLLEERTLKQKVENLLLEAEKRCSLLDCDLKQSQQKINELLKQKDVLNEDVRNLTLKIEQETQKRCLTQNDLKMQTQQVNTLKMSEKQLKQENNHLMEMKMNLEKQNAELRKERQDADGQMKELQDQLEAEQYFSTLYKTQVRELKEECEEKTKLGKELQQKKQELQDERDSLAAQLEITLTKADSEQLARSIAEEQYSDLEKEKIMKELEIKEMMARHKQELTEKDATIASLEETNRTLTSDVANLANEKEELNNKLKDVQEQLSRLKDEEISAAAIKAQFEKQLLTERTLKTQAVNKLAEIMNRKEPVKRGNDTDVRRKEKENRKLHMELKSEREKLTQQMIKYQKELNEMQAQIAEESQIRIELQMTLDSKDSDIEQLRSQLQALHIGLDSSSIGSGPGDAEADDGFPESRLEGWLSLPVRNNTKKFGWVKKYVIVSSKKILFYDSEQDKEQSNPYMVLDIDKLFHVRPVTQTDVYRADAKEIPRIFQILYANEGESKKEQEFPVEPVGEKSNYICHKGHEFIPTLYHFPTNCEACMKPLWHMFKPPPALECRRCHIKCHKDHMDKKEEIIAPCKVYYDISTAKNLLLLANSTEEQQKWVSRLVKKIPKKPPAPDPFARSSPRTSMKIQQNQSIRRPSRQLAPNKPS

ROCK1 = ROCK1 (Homo sapiens (Human), UniProt Q13464); conditions: read-out: ROCK1 Average Ki; 1 μM ATP
ROCK1, sequence (Q13464 2-1354 limits assumed): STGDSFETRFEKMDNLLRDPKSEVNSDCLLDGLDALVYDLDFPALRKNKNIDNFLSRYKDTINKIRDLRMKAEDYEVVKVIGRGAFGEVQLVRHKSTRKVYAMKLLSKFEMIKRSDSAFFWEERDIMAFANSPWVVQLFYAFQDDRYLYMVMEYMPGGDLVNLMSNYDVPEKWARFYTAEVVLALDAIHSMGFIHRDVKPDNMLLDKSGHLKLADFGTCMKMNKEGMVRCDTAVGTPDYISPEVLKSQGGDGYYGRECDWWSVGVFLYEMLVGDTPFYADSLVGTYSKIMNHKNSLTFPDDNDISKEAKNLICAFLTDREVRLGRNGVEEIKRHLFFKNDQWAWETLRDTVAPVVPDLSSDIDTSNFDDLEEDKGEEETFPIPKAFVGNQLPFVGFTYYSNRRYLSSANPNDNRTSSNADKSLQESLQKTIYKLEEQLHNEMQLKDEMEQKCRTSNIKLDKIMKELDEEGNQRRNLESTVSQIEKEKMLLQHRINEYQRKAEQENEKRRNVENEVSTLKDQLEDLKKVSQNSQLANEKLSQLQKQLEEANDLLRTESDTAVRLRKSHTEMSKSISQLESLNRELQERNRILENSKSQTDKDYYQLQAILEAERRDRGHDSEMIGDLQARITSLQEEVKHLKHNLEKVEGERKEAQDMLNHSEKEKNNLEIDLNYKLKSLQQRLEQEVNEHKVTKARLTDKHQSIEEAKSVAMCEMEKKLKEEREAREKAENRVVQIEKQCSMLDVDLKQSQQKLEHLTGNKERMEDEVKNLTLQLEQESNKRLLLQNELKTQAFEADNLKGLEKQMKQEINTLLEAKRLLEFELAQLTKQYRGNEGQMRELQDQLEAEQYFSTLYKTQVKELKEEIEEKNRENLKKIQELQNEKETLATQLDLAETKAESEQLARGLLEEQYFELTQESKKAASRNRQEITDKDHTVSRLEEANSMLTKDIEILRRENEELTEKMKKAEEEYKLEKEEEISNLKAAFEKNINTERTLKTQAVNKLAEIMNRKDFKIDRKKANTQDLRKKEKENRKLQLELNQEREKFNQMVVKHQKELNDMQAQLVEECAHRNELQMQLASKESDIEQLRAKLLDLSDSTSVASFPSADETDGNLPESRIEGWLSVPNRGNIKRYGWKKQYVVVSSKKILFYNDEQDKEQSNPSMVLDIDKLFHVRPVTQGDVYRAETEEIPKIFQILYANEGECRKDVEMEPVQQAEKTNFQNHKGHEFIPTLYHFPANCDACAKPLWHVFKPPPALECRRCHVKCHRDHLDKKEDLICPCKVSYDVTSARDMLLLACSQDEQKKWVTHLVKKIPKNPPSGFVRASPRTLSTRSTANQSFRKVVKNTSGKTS

MRCKβ = MRCKβ (Homo sapiens (Human), UniProt Q9Y5S2); assay: MRCKβ kinase assay (IMAP fluorescence polarization); assay type: biochemical; conditions: 1 μM ATP; read-out: MRCK-B Average Ki
From the text: as §1

MRCKα, sequence (Q5VT25 whole entry): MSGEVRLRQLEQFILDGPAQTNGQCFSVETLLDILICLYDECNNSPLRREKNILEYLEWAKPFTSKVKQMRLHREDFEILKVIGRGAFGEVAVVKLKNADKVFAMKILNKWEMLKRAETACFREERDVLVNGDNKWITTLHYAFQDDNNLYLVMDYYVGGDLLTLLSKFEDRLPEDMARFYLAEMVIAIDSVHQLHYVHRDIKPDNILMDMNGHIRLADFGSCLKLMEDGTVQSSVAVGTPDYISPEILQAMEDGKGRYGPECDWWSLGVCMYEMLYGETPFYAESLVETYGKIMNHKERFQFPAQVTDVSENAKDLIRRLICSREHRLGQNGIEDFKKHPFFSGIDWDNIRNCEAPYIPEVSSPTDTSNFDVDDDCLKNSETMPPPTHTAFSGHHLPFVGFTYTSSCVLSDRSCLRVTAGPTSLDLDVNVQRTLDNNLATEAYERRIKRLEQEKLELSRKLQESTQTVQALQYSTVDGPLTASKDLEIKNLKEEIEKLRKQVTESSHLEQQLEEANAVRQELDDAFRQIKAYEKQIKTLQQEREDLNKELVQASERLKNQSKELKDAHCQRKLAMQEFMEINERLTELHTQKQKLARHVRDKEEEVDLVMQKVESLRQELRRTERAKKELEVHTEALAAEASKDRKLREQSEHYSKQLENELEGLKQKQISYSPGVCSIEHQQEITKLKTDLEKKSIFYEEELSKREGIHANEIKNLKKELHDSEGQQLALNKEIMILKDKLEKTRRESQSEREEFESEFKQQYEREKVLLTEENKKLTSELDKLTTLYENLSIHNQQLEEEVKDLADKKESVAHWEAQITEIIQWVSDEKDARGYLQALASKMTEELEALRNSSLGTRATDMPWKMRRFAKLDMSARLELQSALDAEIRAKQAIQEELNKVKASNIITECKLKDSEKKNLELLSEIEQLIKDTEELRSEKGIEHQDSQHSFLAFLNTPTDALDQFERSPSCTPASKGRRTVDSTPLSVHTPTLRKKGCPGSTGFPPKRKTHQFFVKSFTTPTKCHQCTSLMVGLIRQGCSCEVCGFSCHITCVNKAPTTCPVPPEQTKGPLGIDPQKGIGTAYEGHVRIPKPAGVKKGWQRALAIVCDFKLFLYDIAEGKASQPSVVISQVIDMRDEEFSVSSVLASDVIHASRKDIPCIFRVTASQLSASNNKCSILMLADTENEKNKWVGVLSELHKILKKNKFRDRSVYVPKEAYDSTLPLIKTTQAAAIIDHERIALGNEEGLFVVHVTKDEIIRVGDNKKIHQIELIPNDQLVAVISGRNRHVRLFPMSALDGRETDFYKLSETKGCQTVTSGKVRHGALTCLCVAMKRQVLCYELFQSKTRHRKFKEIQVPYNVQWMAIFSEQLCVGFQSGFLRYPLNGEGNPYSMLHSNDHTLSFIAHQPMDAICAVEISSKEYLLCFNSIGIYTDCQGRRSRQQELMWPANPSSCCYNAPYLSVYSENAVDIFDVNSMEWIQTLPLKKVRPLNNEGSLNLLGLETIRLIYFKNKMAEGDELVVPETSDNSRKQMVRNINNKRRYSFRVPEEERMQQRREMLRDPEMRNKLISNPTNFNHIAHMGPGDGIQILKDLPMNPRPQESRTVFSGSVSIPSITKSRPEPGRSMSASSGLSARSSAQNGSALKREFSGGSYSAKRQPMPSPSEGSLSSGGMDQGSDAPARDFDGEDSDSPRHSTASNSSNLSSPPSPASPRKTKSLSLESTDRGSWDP

SMILES | Ki (MRCKα) | Ki (ROCK2) | Ki (ROCK1) | Ki (MRCKβ)
CN(C)c1ccnc2[nH]cc(C#N)c12 [Example E31, 4-(dimethylamino)-1H-pyrrolo[2,3-b]pyridine-3-carbonitrile] | 47.9 nM | 24.1 nM | 43.6 nM | 16.7 nM
c1cncc(-c2c[nH]c3nccc(N4CCCCC4)c23)c1 [Example E182, 4-(1-piperidyl)-3-(3-pyridyl)-1H-pyrrolo[2,3-b]pyridine] | 9 nM | 90 nM | 132 nM | 18.8 nM
CNc1ccnc2[nH]cc(C#N)c12 [Example E37, 4-(methylamino)-1H-pyrrolo[2,3-b]pyridine-3-carbonitrile] | 125 nM | 30.3 nM | 43.8 nM | 39.9 nM
FC1CCN([C@H]2CCCN(c3ccnc4[nH]cc(-c5cncnc5)c34)C2)C1 (stereo partly drawn) [Example E95, 4-[(3S)-3-(3-fluoropyrrolidin-1-yl)-1-piperidyl]-3-pyrimidin-5-yl-1H-pyrrolo[2,3-b]pyridine] | 19.4 nM | 395 nM | 689 nM | 6.98 nM
CN[C@H]1CCCN(c2ccnc3[nH]cc(-c4cnccn4)c23)C1 [Example E72, (3S)-N-methyl-1-(3-pyrazin-2-yl-1H-pyrrolo[2,3-b]pyridin-4-yl)piperidin-3-amine] | 0.629 nM | 268 nM | 51100 nM | 2.98 nM
c1cnnc(-c2c[nH]c3nccc(N4CCCC5(CCCCN5)C4)c23)c1 (centres unmarked) [Example E175, 8-(3-pyridazin-3-yl-1H-pyrrolo[2,3-b]pyridin-4-yl)-1,8-diazaspiro[5.5]undecane] | 0.257 nM | 547 nM | 1860 nM | 1.5 nM
c1ncc(-c2c[nH]c3nccc(N4CCCC5(CCCCN5)C4)c23)cn1 (centres unmarked) [Example E196, 8-(3-pyrimidin-5-yl-1H-pyrrolo[2,3-b]pyridin-4-yl)-1,8-diazaspiro[5.5]undecane] | 5.1 nM | 177 nM | 213 nM | 134000 nM
c1ncc(-c2c[nH]c3nccc(OC4CCCNCC4)c23)cn1 (centres unmarked) [Example E216, 4-(azepan-4-yloxy)-3-pyrimidin-5-yl-1H-pyrrolo[2,3-b]pyridine] | 1.13 nM | 55.8 nM | 66.8 nM | 1.78 nM
NCC1CCCN(c2ccnc3[nH]cc(-c4cncnc4)c23)C1 (centres unmarked) [Example E86, [1-(3-pyrimidin-5-yl-1H-pyrrolo[2,3-b]pyridin-4-yl)-3-piperidyl]methanamine] | 4.6 nM | 10.5 nM | 8.2 nM | 1.85 nM
N#Cc1c[nH]c2nccc(N3CCCCC3)c12 [Example E35, 4-(1-piperidyl)-1H-pyrrolo[2,3-b]pyridine-3-carbonitrile] | 14.3 nM | 16 nM | 57.9 nM | 9.01 nM
C[C@H]1CCCN1c1ccnc2[nH]cc(C#N)c12 [Example E111, 4-[(2S)-2-methylpyrrolidin-1-yl]-1H-pyrrolo[2,3-b]pyridine-3-carbonitrile] | 123 nM | 25.5 nM | 85.2 nM | 39.7 nM
c1ncc(-c2c[nH]c3nccc(O[C@H]4CCCNC4)c23)cn1 [Example E222, 4-[[(3S)-3-piperidyl]oxy]-3-pyrimidin-5-yl-1H-pyrrolo[2,3-b]pyridine] | 28.4 nM | 50700 nM | 50900 nM | 50.6 nM
N[C@H]1CCCN(c2ccnc3[nH]cc(-c4cncnc4)c23)C1 [Example E69, (3S)-1-(3-pyrimidin-5-yl-1H-pyrrolo[2,3-b]pyridin-4-yl)piperidin-3-amine] | 4.5 nM | 274 nM | 460 nM | 2.72 nM
Cc1cnc2[nH]cc(-c3cn[nH]c3)c2c1N1CCCCC1 [Example E2, 5-methyl-4-(1-piperidyl)-3-(1H-pyrazol-4-yl)-1H-pyrrolo[2,3-b]pyridine] | 19.7 nM | 102 nM | 207 nM | 36.4 nM
